Test results from patent US6437184B1, “Oxime compounds, their use, and intermediates for their production” (Sumitomo Chemical Company, Limited, priority 1997, dated 2002).
Values belong to the compound of their own block, whether it stands above or below them.

Columns and labels:
[1] = tested on: Heliothis virescens; experiment: Insecticidal test against Heliothis virescens; assay type: in vivo; conditions: 168 h, 100 ppm water dilution, 0.2 ml on surface of artificial diet, second-instar larvae, after 7 days
Procedure: A water dilution (100 ppm) of a test compound formulation obtained according to Formulation Example 1 was added dropwise at a volume of 0.2 ml and uniformly spread over the surface of an artificial diet having a weight of 3 g, which had been prepared in a 30 ml plastic cup. After air drying, one second-instar larva of Heliothis virescens was set free in each cup. Ten larvae were used for each treatment. After 7 days, the mortality of the larvae was determined.

[2] = tested on: Helicoverpa armigera; experiment: Insecticidal test against Helicoverpa armigera; assay type: in vivo; conditions: 120 h, 100 ppm water dilution, cotton leaf fragment immersed 10 seconds, third-instar larvae, after 5 days
Procedure: A cotton leaf fragment (diameter, 5 cm) was immersed for 10 seconds Lin a water dilution (100 ppm) of a test compound formulation obtained according to Formulation Example 1. This fragment was taken out from the dilution, air dried, and placed in a polyethylene cup having a diameter of 5.5 cm. One third-instar larva of Helicoverpa armigera was set free in each cup. Ten larvae were used for each treatment. After 5 days, the mortality of the larvae was determined.

[3] = tested on: Cydia pomonella; experiment: Insecticidal test against Cydia pomonella; assay type: in vivo; conditions: 168 h, 100 ppm water dilution, 0.2 ml on surface of artificial diet, eggs just before hatching, after 7 days
Procedure: A water dilution (100 ppm) of a test compound formulation obtained according to Formulation Example 1 was added dropwise at a volume of 0.2 ml and spread over the surface of an artificial diet having a weight of 3 g, which had been prepared in a 30 ml polyethylene cup. After air drying, placed in the cup was a piece of wax paper (about 2.5 cm square) having about 20 eggs which had been laid by Cydia pomonella and were just before hatching. Four pieces of such wax paper were used for each treatment. After 7 days, the mortality of the larvae was determined.

[4] = tested on: Plutella xylostella; experiment: Insecticidal test against Plutella xylostella; assay type: in vivo; conditions: 96 h, 50 ppm water dilution sprayed over potted cabbages, 25 ml per pot, third-instar larvae, after 4 days, read-out: mortality
Procedure: To a water dilution (50 ppm) of a test compound formulation obtained according to Formulation Example 1 was added a spreading agent (New RINOU available from Nihon Noyaku K.K.) at a dilution ratio of 3000-fold. The dilution was sprayed over potted cabbages at the four to five leaf stage at a volume of 25 ml per pot. After the treated plants were air dried, ten third-instar larvae of Plutella xylostella were set free on each pot. After 4 days, the mortality was determined.

[5] = tested on: Tetranychus urticae; experiment: Acaricidal test against Tetranychus urticae; assay type: in vivo; conditions: 500 ppm water dilution, 15 ml sprayed over brush bean with female adults set free 6 days before; after 8 days
Procedure: About twenty female adults of Tetranychus urticae were set free on brush bean (Phaseolus vulgaris) in the primary leaf stage, which had been potted in a plastic cup for 7 days after the seeding. After 6 days, a 200-fold water dilution (500 ppm) of a test compound formulation obtained according to Formulation Example 1 or 2 was sprayed at a volume of 15 ml over the plant. After 8 days, each compound was evaluated for acaricidal activity on the following criteria.
−: almost no damage and completely no surviving mites
±: slight damage and some few surviving mites
+: rather smaller damage and a rather fewer surviving mites than non-treatment case
++: same as non-treatment case

melting point: 65.2 °C
SMILES: O=[N+]([O-])c1ccc(ON=CCCCCOc2c(Cl)cc(OCC=C(Cl)Cl)cc2Cl)c([N+](=O)[O-])c1

SMILES: ClC(Cl)=CCOc1cc(Cl)c(OCCCCOCC=NOCC=C(Br)Br)c(Cl)c1 [(3), 4-(2,6-dichloro-4-(3,3-dichloro-2-propenyloxy)phenoxy)butyloxyacetaldehyde O-(3,3-dibromo-2-propenyl)oxime]
mortality at 100 µg/mL [1]: ≥ 80%

SMILES: ClC(Cl)=CCOc1cc(Cl)c(OCCCCOCC=NOCc2ccccc2)c(Cl)c1 [(5), 4-(2,6-dichloro-4-(3,3-dichloro-2-propenyloxy)phenoxy)butyloxyacetaldehyde O-benzyloxime]
mortality at 100 µg/mL [1]: ≥ 80%

SMILES: CCc1cc(OCC=C(Cl)Cl)cc(CC)c1OCCCCOCC=NOC(C)(C)C [(11), 4-(2,6-diethyl-4-(3,3-dichloro-2-propenyloxy)phenoxy)butyloxyacetaldehyde O-tert-butyloxime]
mortality at 100 µg/mL [1]: ≥ 80% | mortality at 100 µg/mL [2]: ≥ 80% | mortality at 100 µg/mL [3]: ≥ 80%

melting point: 65.4 °C
SMILES: CCON=C(C)COc1c(Cl)cc(OCC=C(Cl)Cl)cc1Cl [(30), (2,6-dichloro-4-(3,3-dichloro-2-propenyloxy)phenoxy)acetone O-ethyloxime]

SMILES: ClC(Cl)=CCON=CCCCCCOc1c(Cl)cc(OCC=C(Cl)Cl)cc1Cl [(76), 6-(2,6-dichloro-4-(3,3-dichloro-2-propenyloxy)phenoxy)hexanal O-(3,3-dichloro-2-propenyl)oxime]
mortality at 50 µg/mL [4]: ≥ 80% | mortality at 100 µg/mL [1]: ≥ 80% | mortality at 100 µg/mL [3]: ≥ 80%

melting point: 62.8 °C
SMILES: ON=CCOCCCCOc1c(Cl)cc(OCC=C(Cl)Cl)cc1Cl [(148), 4-(2,6-dichloro-4-(3,3-dichloro-2-propenyloxy)phenoxy)butyloxyacetaldehyde oxime]

SMILES: ClC(Cl)=CCOc1cc(Cl)c(OCCCCCOCC=NOCC(Cl)(Cl)Cl)c(Cl)c1 [(160), 5-(2,6-dichloro-4-(3,3-dichloro-2-propenyloxy)phenoxy)pentyloxyacetaldehyde O-(2,2,2-trichloroethyl)oxime]
mortality at 100 µg/mL [1]: ≥ 80%

SMILES: CC(COCCCCCOc1c(Cl)cc(OCC=C(Cl)Cl)cc1Cl)=NOC(=O)C(C)(C)C [(178), 5-(2,6-dichloro-4-(3,3-dichloro-2-propenyloxy)phenoxy)pentyloxyacetone O-pivaloyloxime]
acaricidal activity [5]: “−” or “±”

SMILES: ClC(Cl)=CCON=Cc1ccc(COc2c(Cl)cc(OCC=C(Cl)Cl)cc2Cl)cc1 [(279), 4-(2,6-dichloro-4-(3,3-dichloro-2-propenyloxy)phenoxymethyl)benzaldehyde O-(3,3-dichloro-2-propenyl)oxime]
mortality at 50 µg/mL [4]: ≥ 80% | mortality at 100 µg/mL [2]: ≥ 80% | mortality at 100 µg/mL [3]: ≥ 80%

melting point: 88.2 °C
SMILES: ClC(Cl)=CCON=Cc1ccc(COc2c(Cl)cc(OCC=C(Br)Br)cc2Cl)cc1 [(280), 4-(2,6-dichloro-4-(3,3-dibromo-2-propenyloxy)phenoxymethyl)benzaldehyde O-(3,3-dichloro-2-propenyl)oxime]

melting point: 90.8 °C
SMILES: ClC(Cl)=CCOc1cc(Cl)c(OCCOc2ccc(C=NOCC=C(Br)Br)cc2)c(Cl)c1 [(282), 4-(2-(2,6-dichloro-4-(3,3-dichloro-2-propenyloxy)phenoxy)-ethoxy)benzaldehyde O-(3,3-dibromo-2-propenyl)oxime]

SMILES: ClC(Cl)=CCON=Cc1ccc(OCCCOc2c(Cl)cc(OCC=C(Cl)Cl)cc2Cl)cc1 [(283), 4-(3-(2,6-dichloro-4-(3,3-dichloro-2-propenyloxy)phenoxy)propyloxy)benzaldehyde O-(3,3-dichloro-2-propenyl)oxime]
mortality at 50 µg/mL [4]: ≥ 80% | mortality at 100 µg/mL [2]: ≥ 80%

melting point: 56.4 °C
SMILES: CC(=NOC(C)(C)C)c1ccc(OCCCCOc2c(Cl)cc(OCC=C(Cl)Cl)cc2Cl)cc1 [(298), 4′-(4-(2,6-dichloro-4-(3,3-dichloro-2-propenyloxy)phenoxy)butyloxy)acetophenone O-tert-butyloxime]

melting point: 95.9 °C
SMILES: CON=Cc1ccc(COc2c(Cl)cc(OCC=C(Cl)Cl)cc2Cl)cc1 [(311), 4-(2,6-dichloro-4-(3,3-dichloro-2-propenyloxy)phenoxymethyl)benzaldehyde O-methyloxime]

melting point: 70.3 °C
SMILES: ClC(Cl)=CCOc1cc(Cl)c(OCc2ccc(C=NOCc3ccccc3)cc2)c(Cl)c1 [(313), 4-(2,6-dichloro-4-(3,3-dichloro-2-propenyloxy)phenoxymethyl)benzaldehyde O-benzyloxime]

melting point: 56.1 °C
SMILES: CCON=C(C)c1ccc(OCCCCCOc2c(Cl)cc(OCC=C(Cl)Cl)cc2Cl)cc1 [(321), 4′-(5-(2,6-dichloro-4-(3,3-dichloro-2-propenyloxy)phenoxy)-pentyloxy)acetophenone O-ethyloxime]

melting point: 84.8 °C
SMILES: CCON=Cc1ccc(COc2c(Cl)cc(OCC=C(Cl)Cl)cc2Cl)cc1 [(326), 4-(2,6-dichloro-4-(3,3-dichloro-2-propenyloxy)phenoxymethyl)benzaldehyde O-ethyloxime]

melting point: 90.1 °C
SMILES: ON=Cc1ccc(OCCCCCOc2c(Cl)cc(OCC=C(Cl)Cl)cc2Cl)cc1 [(333), 4-(5-(2,6-dichloro-4-(3,3-dichloro-2-propenyloxy)phenoxy)pentyloxy)benzaldehyde oxime]

melting point: 121 °C
SMILES: CC(=NO)c1ccc(OCCOc2c(Cl)cc(OCC=C(Cl)Cl)cc2Cl)cc1 [(337), 4′-(2-(2,6-dichloro-4-(3,3-dichloro-2-propenyloxy)phenoxy)-ethoxy)acetophenone oxime]

SMILES: CCCON=C(C)c1ccc(COc2c(Cl)cc(OCC=C(Cl)Cl)cc2Cl)cc1 [(346), 4′-(2,6-dichloro-4-(3,3-dichloro-2-propenyloxy)phenoxymethyl)acetophenone O-propyloxime]
mortality at 100 µg/mL [1]: ≥ 80%

melting point: 87.9 °C
SMILES: ClC(Cl)=CCON=CCOc1ccc(COc2c(Cl)cc(OCC=C(Cl)Cl)cc2Cl)cc1 [(360), 2-(4-(2,6-dichloro-4-(3,3-dichloro-2-propenyloxy)phenoxymethyl)phenoxy)acetaldehyde O-(3,3-dichloro-2-propenyl)oxime]

SMILES: ClC(Cl)=CCOc1cc(Cl)c(OCCCON=Cc2ccccc2)c(Cl)c1 [(523), benzaldehyde O-(3-(2,6-dichloro-4-(3,3-dichloro-2-propenyloxy)phenoxy)propyl)oxime]
mortality at 50 µg/mL [4]: ≥ 80% | mortality at 100 µg/mL [1]: ≥ 80%

SMILES: CC(=NOCCCCCOc1c(Cl)cc(OCC=C(Cl)Cl)cc1Cl)C(C)(C)C [(559), 3,3-dimethyl-2-butanone O-(5-(2,6-dichloro-4-(3,3-dichloro-2-propenyloxy)phenoxy)pentyl)oxime]
mortality at 100 µg/mL [1]: ≥ 80%

melting point: 67.7 °C
SMILES: CC(=NOCCCCCOc1c(Cl)cc(OCC=C(Cl)Cl)cc1Cl)c1ccc(Cl)nc1 [(569), 6-chloro-3-pyridyl methyl ketone O-(5-(2,6-dichloro-4-(3,3-dichloro-2-propenyloxy)phenoxy)pentyl)oxime]

SMILES: CC(=NOCCCCCCOc1c(Cl)cc(OCC=C(Cl)Cl)cc1Cl)C(C)C [(583), 3-methyl-2-butanone O-(6-(2,6-dichloro-4-(3,3-dichloro-2-propenyloxy)phenoxy)hexyl)oxime]
acaricidal activity [5]: “−” or “±”

SMILES: CC(CC(C)(C)C)=NOCCCCCOc1c(Cl)cc(OCC=C(Cl)Cl)cc1Cl [(592), 4,4-dimethyl-2-pentanone O-(5-(2,6-dichloro-4-(3,3-dichloro-2-propenyloxy)phenoxy)pentyl)oxime]
acaricidal activity [5]: “−” or “±”

SMILES: CC(CC(C)(C)C)=NOCCCCCCOc1c(Cl)cc(OCC=C(Cl)Cl)cc1Cl [(593), 4,4-dimethyl-2-pentanone O-(6-(2,6-dichloro-4-(3,3-dichloro-2-propenyloxy)phenoxy)hexyl)oxime]
acaricidal activity [5]: “−” or “±”

melting point: 71.2 °C
SMILES: N#Cc1ccc(C=NOCCCCOc2c(Cl)cc(OCC=C(Cl)Cl)cc2Cl)cc1 [(691), 4-cyanobenzaldehyde O-(4-(2,6-dichloro-4-(3,3-dichloro-2-propenyloxy)phenoxy)butyl)oxime]
